Assay results from US11446299B2, “Carbazole EHop-016 derivatives as anticancer and anti-migratory agents” (UNIVERSITY OF PUERTO RICO, priority 2017, dated 2022).

Tested on: MCF-7 cancer cells
Test: Sulforhodamine B (SRB) growth inhibition assay
Type: cell-based
Conditions: Homo sapiens, MCF7, 24 h treatment, mean of triplicate, SD <10%
Experimental: Various compounds were tested to evaluate the dose response curve for effect on MCF-7 cancer cells and MDA-MB-231 cancer cells. MCF-7 and MDA-MB-231 cells were cultured in 10% Minimum Essential Medium Eagle (MEME) supplemented with Earle's Balanced Salt Solution (EBSS), Non-essential Amino acids (NEAA), Sodium pyruvate, Pen/Strep, L-glutamine and Fetal Bovine Serum (FBS) at 37° C. in 5% CO2.
Sulforhodamine B (SRB) Assay: A stock solution of compounds was prepared at 50 mM in 100% DMSO. For cells preparation, a flask of 75 cm^2 or 25 cm^2 were used for 2.6×10^5 cells or 1.44×10^5 cells respectively with an 80-90% of confluence. Cells were washed with PBS and trypsinized. The concentration of cells was determined using a 1:2 dilutions with Trypan Blue and a hemocytometer. After cell count, the concentration was adjusted to have a 1.9×10^4 cells/well. Approximately […] of cells suspension, compounds, control positive and control negative were added in triplicates to a 96 well plate. Positive controls used were ellipticine, doxorubicin, and/or vincristine, and the negative control was DMSO 0.1%. All compounds at 50, 25, 12.5, 6.3, and 1.6 μM were incubated with cells at 37° C. for 24 hrs. For fixation, cold TCA 50% was used and incubated at 4° C. for 1 hr. Wells were washed and dried prior to tincture with 100 μL of SRB 0.4%. To remove excess of SRB, acetic acid was used. For analysis, TRIS-BASE Solution (pH=10.5) was used and shacked prior to reading using an ELISA reader at 510 nm and the software SoftMax Pro 4.8.
For each compound, 50% growth inhibition (GI50) was calculated from Sigmoidal dose-response curves (variable-slope) that were generated with data obtained from experiments carried out in triplicates (GI50 values were generated with GraphPad Prism V. 6.02, GraphPad Software, Inc.). The results are presented in FIGS. 4A-4B (MCF-7 cancer cells) and FIGS. 5A-5B (MDA-MB-231 cancer cells).

For `CCn1c2ccccc2c2cc(C(=O)Nc3cccnc3N3CCOCC3)ccc21` [Compound 11b, 9-Ethyl-9H-carbazole-3-carboxylic Acid (2-morpholin-4-yl-pyridin-3-yl)-amide], the GI50 was over 50 µM.
